Source: patent publication US20170121344A1 (Siga Technologies, Inc., priority 2009, published 2017)
pEC50: −log10 of the molar value. Like-named read-outs stand apart in the source and are kept apart here.

Tested on: Dengue-2 (Strain New Guinea C)
Assay: Viral yield assay against Dengue-2 in Vero cells
Format: cell-based, Dengue virus
Conditions: Dengue virus; for EC50: read-out: Activity (EC50 in μM) DENV-2; for pEC50: read-out: Activity (EC50 class) against Dengue-2 Virus in Vero cells
Summary of the method: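 Progeny virus from compound-treated Vero monolayers infected at an MOI of 0.1 is collected after 48 h at 37° C and titered on Vero cells. DMSO serves as control.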

[1] = DENV2, viral yield assay, Vero cells, MOI 0.1, 48 hours post infection
[2] = Vero cells, MOI 0.1, harvested 48 hours post infection

| Structure (SMILES) | EC50 [1] [µM] | pEC50 [2] | also measured |
| --- | --- | --- | --- |
| COc1cccc(-c2ccc3c(N)c(C(=O)Nc4ccc(C)c(Cl)c4)sc3n2)c1 [Compound 544, 3-amino-N-(3-chloro-4-mehtyl-phenyl)-6-(3-methoxyphenyl)thieno[2,3-b] pyridine-2-carboxamide] | < 5 | – | – |
| COc1ccc(C(F)(F)F)cc1NC(=O)c1sc2nc(-c3cccs3)ccc2c1N [Compound 442, 3-amino-N-[2-methoxy-5-(trifluoromethyl)phenyl]-6-(2-thienyl) thieno[2,3-b]pyridine-2-carboxamide] | < 5 | – | – |
| CN1CCc2nc3sc(C(=O)NCCc4ccccc4)c(N)c3cc2C1 [Compound 267, 3-Amino-6-methyl-5,6,7,8-tetrahydro-thieno[2,3-b][1,6]naphthyridine-2-carboxylic acid phenethyl-amide] | – | < 4.60 | – |
| CC(C)Cc1ccc2c(N)c(C(=O)Nc3ccccc3)sc2n1 [Compound 206, 3-Amino-6-isobutyl-thieno[2,3-b]pyridine-2-carboxylic acid phenylamide] | – | – | pEC50 (Vero, 48 h): < 4.60 |
| Cc1ccc(NC(=O)c2sc3nc(C)cc(C(F)(F)F)c3c2N)cc1 [Compound 165, 3-Amino-6-methyl-4-trifluoromethyl-thieno[2,3-b]pyridine-2-carboxylic acid p-tolylamide] | – | < 4.60 | – |
| CCN(CC)c1ccc(NC(=O)c2sc3nc4c(cc3c2N)CN(C)CC4)cc1 [Compound 276, 3-Amino-6-methyl-5,6,7,8-tetrahydro-thieno[2,3-b][1,6]naphthyridine-2-carboxylic acid (4-diethylamino-phenyl)-amide] | – | < 4.60 | – |
| Nc1c(C(=O)Nc2ccncc2)sc2nc(-c3cccs3)ccc12 [Compound 357, 3-amino-N-(4-pyridyl)-6-(2-thienyl)thieno [2,3-b]pyridine-2-carboxamide] | < 5 | – | – |
| Nc1c(C(=O)Nc2nnc(-c3ccccc3)s2)sc2ncc(C(=O)O)cc12 [Compound 291, 3-amino-2-[(5-phenyl-1,3,4-thiadiazol-2-yl)carbamoyl]thieno[2,3-b]pyridine-5-carboxylic acid] | 5 to 25 | – | – |
| CCc1nnc(NC(=O)c2sc3nc(C)cc(COC)c3c2N)s1 [Compound 137, 3-Amino-4-methoxymethyl-6-methyl-thieno[2,3-b]pyridine-2-carboxylic acid (5-ethyl-[1,3,4]thiadiazol-2-yl)-amide] | – | < 4.60 | – |
| CC(=O)c1ccc(NC(=O)c2sc3nc(C)cc(C)c3c2N)cc1 [Compound 120, 3-Amino-4,6-dimethyl-thieno[2,3-b]pyridine-2-carboxylic acid (4-acetyl-phenyl)-amide] | – | < 4.60 | – |
| COc1cccc(-c2ccc3c(N)c(C(=O)Nc4ccc(C(C)=O)cc4)sc3n2)c1 [Compound 513, N-(4-acetylphenyl)-3-amino-6-(3-methoxyphenyl)thieno[2,3-b]pyridine-2-carboxamide] | – | – | EC50 (DENV2, Vero, 48 h): < 5 µM |
| COc1ccccc1-c1cc(-c2ccccc2)c2c(N)c(C(=O)NC3CC3)sc2n1 [Compound 67, 3-Amino-6-(2-methoxy-phenyl)-4-phenyl-thieno[2,3-b]pyridine-2-carboxylic acid cyclopropylamide] | – | 4.60 to 5.30 | – |
| CC(C)NC(=O)c1sc2nc3c(cc2c1N)CN(C)CC3 [Compound 270, 3-Amino-6-methyl-5,6,7,8-tetrahydro-thieno[2,3-b][1,6]naphthyridine-2-carboxylic acid isopropylamide] | – | < 4.60 | – |
| CCCc1ccc2c(N)c(C(N)=O)sc2n1 [Compound 71, 3-Amino-6-propyl-thieno[2,3-b]pyridine-2-carboxylic acid amide] | – | 4.60 to 5.30 | – |
| CC1(C)Cc2c(c(N3CCOCC3)nc3sc4c(=O)n(-c5ccc(Cl)c(Cl)c5)cnc4c23)CO1 [Compound 245, 9-(3,4-Dichloro-phenyl)-2,2-dimethyl-5-morpholin-4-yl-1,4-dihydro-2H,9H-3-oxa-7-thia-6,9,11-triaza-benzo[c]fluoren-8-one] | – | < 4.60 | – |
| Cc1cc(C)c2c(N)c(C(=O)Nc3ccccc3F)sc2n1 [Compound 178, 3-Amino-4,6-dimethyl-thieno[2,3-b]pyridine-2-carboxylic acid (2-fluoro-phenyl)-amide] | – | – | pEC50 (Vero, 48 h): < 4.60 |
| CN1CCc2nc3sc(C(=O)Nc4ccc(Cl)cc4)c(N)c3cc2C1 [Compound 13, 3-Amino-6-methyl-5,6,7,8-tetrahydro-thieno[2,3-b][1,6]naphthyridine-2-carboxylic acid (4-chloro-phenyl)-amide] | – | – | pEC50 (Vero, 48 h): > 5.30 |
| COc1cccc(-c2ccc3c(N)c(C(=O)Nc4ccc(C)cc4)sc3n2)c1 [Compound 553, 3-amino-6-(3-methoxyphenyl)-N-(p-tolyl)thieno[2,3-b]pyridine-2-carboxamide] | < 5 | – | – |
| COc1ccc(NC(=O)c2sc3nc(-c4ccc(OC)c(OC)c4)ccc3c2N)c(C)c1 [Compound 500, 3-amino-6-(3,4-dimethoxyphenyl)-N-(4-methoxy-2-methyl-phenyl)thieno[2,3-b] pyridine-2-carboxamide] | < 5 | – | – |

| Structure (SMILES) | EC50 [1] [µM] | pEC50 [2] | also measured |
| --- | --- | --- | --- |
| CCC1(C)Cc2c(c(N3CCOCC3)nc3sc4c(=O)[nH]cnc4c23)CO1 (centres unmarked) [Compound 261, 2-Ethyl-2-methyl-5-morpholin-4-yl-1,4-dihydro-2H,9H-3-oxa-7-thia-6,9,11-triaza-benzo[c]fluoren-8-one] | – | < 4.60 | – |
| COCc1cc(C)nc2sc(C(=O)Nc3ccc(Cl)cc3)c(N)c12 [Compound 81, 3-Amino-4-methoxymethyl-6-methyl-thieno[2,3-b]pyridine-2-carboxylic acid (4-chloro-phenyl)-amide] | – | – | pEC50 (Vero, 48 h): 4.60 to 5.30 |
| O=C(Nc1cccc(C(F)(F)F)c1)c1sc2ncccc2c1OCc1ccc(Cl)c(Cl)c1 [Compound 377, 3-[(3,4-dichlorophenyl)methoxy]-N-[3-(trifluoromethyl)phenyl]thieno[2,3-b] pyridine-2-carboxamide] | < 5 | – | – |
| Cc1ccc(NC(=O)c2sc3nc(-c4ccc(F)cc4)ccc3c2N)c(C)c1 [Compound 614, 3-amino-N-(2,4-dimethylphenyl)-6-(4-fluorophenyl)thieno[2,3-b]pyridine-2-carboxamide] | < 5 | – | – |
| CC(=O)c1cc2c(N)c(C(=O)NC34CC5CC(CC(C5)C3)C4)sc2nc1C [Compound 142, 5-Acetyl-3-amino-6-methyl-thieno[2,3-b]pyridine-2-carboxylic acid adamantan-1-ylamide] | – | < 4.60 | – |
| COCc1cc(C)nc2sc(C(=O)Nc3cc(C)ccc3F)c(N)c12 [Compound 242, 3-Amino-4-methoxymethyl-6-methyl-thieno[2,3-b]pyridine-2-carboxylic acid (2-fluoro-5-methyl-phenyl)-amide] | – | < 4.60 | – |
| COc1cccc(-c2ccc3c(N)c(C(=O)Nc4ccc(F)c(F)c4)sc3n2)c1 [Compound 525, 3-amino-N-(3,4-difluorophenyl)-6-(3-methoxyphenyl)thieno[2,3-b]pyridine-2-carboxamide] | < 5 | – | – |
| N#Cc1cc2c(N)c(C(=O)Nc3ccccc3F)sc2nc1N [Compound 135, 3,6-Diamino-5-cyano-thieno[2,3-b]pyridine-2-carboxylic acid (2-fluoro-phenyl)-amide] | – | < 4.60 | – |
| Nc1c(C(=O)Nc2ccccc2C(F)(F)F)sc2nc(-c3ccncc3)ccc12 [Compound 480, 3-amino-6-(4-pyridyl)-N-[2-(trifluoromethyl)phenyl]thieno[2,3-b] pyridine-2-carboxamide] | < 5 | – | – |
| CN(C)c1ccnc2sc(C(N)=O)c(N)c12 [Compound 166, 3-Amino-4-dimethylamino-thieno[2,3-b]pyridine-2-carboxylic acid amide] | – | – | pEC50 (Vero, 48 h): < 4.60 |
| Nc1c(C(=O)Nc2cc(Cl)ccc2Cl)sc2nc(-c3ccc(F)cc3)ccc12 [Compound 605, 3-amino-N-(2,5-dichlorophenyl)-6-(4-fluorophenyl)thieno[2,3-b]pyridine-2-carboxamide] | < 5 | – | – |
| CCOc1ccc(-c2c3c(nc4sc(C(=O)Nc5nccs5)c(N)c24)CCCC3)cc1 [Compound 241, 3-Amino-4-(4-ethoxy-phenyl)-5,6,7,8-tetrahydro-thieno[2,3-b]quinoline-2-carboxylic acid thiazol-2-ylamide] | – | < 4.60 | – |
| Cc1ccc(NC(=O)c2sc3nc(-c4ccc(F)cc4)ccc3c2N)cc1C [Compound 607, 3-amino-N-(3,4-dimethylphenyl)-6-(4-fluorophenyl)thieno[2,3-b]pyridine-2-carboxamide] | < 5 | – | – |
| CN1CCc2nc3sc(C(=O)NCc4ccc(F)cc4)c(N)c3cc2C1 [Compound 14, 3-Amino-6-methyl-5,6,7,8-tetrahydro-thieno[2,3-b][1,6]naphthyridine-2-carboxylic acid 4-fluoro-benzylamide] | – | > 5.30 | – |
| CN1CCc2nc3sc(C(=O)Nc4cccnc4Cl)c(N)c3cc2C1 [Compound 46, 3-Amino-6-methyl-5,6,7,8-tetrahydro-thieno[2,3-b][1,6]naphthyridine-2-carboxylic acid (2-chloro-pyridin-3-yl)-amide] | – | > 5.30 | – |
| COc1cccc(-c2ccc3c(N)c(C(=O)Nc4ccc(F)cc4Cl)sc3n2)c1 [Compound 557, 3-amino-N-(2-chloro-4-fluoro-phenyl)-6-(3-methoxyphenyl)thieno[2,3-b] pyridine-2-carboxamide] | < 5 | – | – |
| Cc1c(Cl)cccc1NC(=O)c1sc2nc(-c3ccc(F)cc3)ccc2c1N [Compound 604, 3-amino-N-(3-chloro-2-methyl-phenyl)-6-(4-fluorophenyl)thieno[2,3-b]pyridine-2-carboxamide] | < 5 | – | – |
| CC1(C)CC(=O)c2cc3c(N)c(C(=O)Nc4ccc5c(c4)OCO5)sc3nc2C1 [Compound 226, 3-Amino-7,7-dimethyl-5-oxo-5,6,7,8-tetrahydro-thieno[2,3-b]quinoline-2-carboxylic acid benzo[1,3]dioxol-5-ylamide] | – | < 4.60 | – |
| COc1cccc(-c2ccc3c(N)c(C(=O)Nc4cc(OC)ccc4OC)sc3n2)c1 [Compound 496, 3-amino-N-(2,5-dimethoxyphenyl)-6-(3-methoxyphenyl)thieno[2,3-b]pyridine-2-carboxamide] | < 5 | – | – |
